In patent US20180036332A1 (Chongqing Institute of Bench-to Bed Bioengineering …, priority 2015, published 2018):

Experiments:
[1] = test system: primary endothelial cells HUVEC; experiment: MTT cell viability assay of primary endothelial cells HUVEC in low glucose and hypoxia environment; type: cell-based; settings: 48 hours
[2] = parameters: species or system rats; settings: rat, in vivo

With “Nicotinamide adenine dinucleotide phosphate [NADPH]” the “survival rate of HUVEC cells” value ([1]; 5 μM NADPH, p<0.05) was “around 65.3%”, the “survival rate of HUVEC cells” value ([1]; 10 μM NADPH, p<0.01) was “around 73.6%” and the “survival rate of HUVEC cells” value ([1]; 20 μM NADPH, p<0.01) was “around 70.9%”. The “range of myocardial infarction (weight % of ischemic infarct zone in total ischemic myocardial zone)” value [2] was “significantly reduces the range of myocardial infarction”.
